Measured values taken from patent EP0143987A1, “Therapeutic compositions endowed with antiviral activity” (Stendardi, Anna Gioia, priority 1983, dated 1985).

Assays:
HSV-1 = experiment: appearance of resistant HSV-1 mutants following treatment; type: cell-based; details: for Resistant mutants/10^4 viruses: plaques counted 72 hours later; for HSV-1 mutants resistant, pre-existing within the virus population: approximate restatement of Table 2 (drugs used individually)
Procedure: Finally, tests were carried out which aimed at quantifying the appearance of resistant HSV-1 mutants following treatment with acyclovir and BVDU, used individually or in association. For these tests the two compounds were used in concentrations which were 3.3 times (acyclovir) and 1.4 times (BVDU) the ID 100 value, so as to be able to completerly prevent the multiplication of sensitive viruses. For this 5 purpose, […] Vero cells, infected with HSV-1 at a multiplicity of 0.3 PFU/cell, were seeded on a preformed monolayer of uninfected Vero cells and left to adhere for 4 hours at 35°C in T-199 with 2% serum, in the presence of the inhibitors.
The liquid culture medium was then removed and replaced with new medium containing the inhibitors and 0.75% carboxymethylcellulose.
The number of plaques developed following multiplication of resistant viruses was determined 72 hours later.

[1] = tested on: type 2 (HSV-2) herpes simplex viruses; details: background statement; cited from earlier work
[2] = tested on: herpex simplex virus type 1 (ATCC VR-733); experiment: plaque reduction test in Vero cells; type: cell-based; details: mean of three samples, 72 hours, untreated control 134 plaques
Procedure: The mutual synergistic activity of acyclovir and BVDU was evaluated on the herpex simplex virus type 1 (ATCC VR-733), grown in Vero cells (ATCC CCL 81) in MEM T-199 containing 2% calf serum.
The method used was the plaque reduction test /P. Collins et al. (1977) Annals, of the New York Academy of Sciences 284, pp. 49-59/. For this purpose, confluent monolayers of Vero cells, seeded in multi-well plates (diameter 3.5 cm) at a concentration of […] cells/plate, were infected with 150 plaque-forming units (PFU) of HSV-1 per plate.
After an adsorption period of one hour at room temperature and removal of the unadsorbed virus, the monolayers were washed with buffered saline solution and then incubated at 35°C, in 5% CO2, in MEM T-199 containing 2% calf serum and 0.75% carboxymethylcellulose, both in the absence and in the presence of the inhibitors.
72 hours later, the infected monolayers were washed three times with saline solution and dyed with a 0.1% methylene blu solution in order to be able to count the number of lysis plaques resulting from the multiplication of the virus.
The number represent the mean value of three samples, and correspond to the number of plaques obtained in the absence or in the presence of acyclovir and BVDU, used either individually or in association.
The above values were then expressed as percentage of the number of plaques obtained in untreated control cultures and plotted, in the ordinate axis, against the logarithm of the concentration used (in abscissa).
This enabled to determine the concentration of the two drugs (alone or in combination) which were necessary for reducing the number of viral plaques by 100% (ID100) […]

[3] = tested on: type 1 (HSV-1) herpes simplex viruses; details: background statement; cited from earlier work

| SMILES | Resistant mutants/10^4 viruses (HSV-1; BVDU 1.0 μM alone) | HSV-1 mutants resistant, pre-existing within the virus population (HSV-1) | inhibition of the multiplication of HSV-2 [1] | number of plaques ([2]; BVDU 0.01 µM alone) | number of plaques ([2]; BVDU 0.02 µM alone) | number of plaques ([2]; BVDU 0.04 µM alone) | number of plaques ([2]; BVDU 0.8 µM alone) | inhibition of the multiplication of HSV-1 [3] | Resistant mutants/10^4 viruses (HSV-1; Acyclovir 2.5 μM alone) | number of plaques ([2]; Acyclovir 0.075 µM alone) | number of plaques ([2]; Acyclovir 0.15 µM alone) | number of plaques ([2]; Acyclovir 0.3 µM alone) | number of plaques ([2]; Acyclovir 0.6 µM alone) | number of plaques ([2]; Acyclovir 1.2 µM alone) |
| --- | --- | --- | --- | --- | --- | --- | --- | --- | --- | --- | --- | --- | --- | --- |
| O=c1[nH]c(=O)n([C@H]2C[C@H](O)[C@@H](CO)O2)cc1/C=C/Br [BVDU, E-5-(2-bromovinyl)-2'-deoxyuridine] | 13.8 /10^4 viruses | ~1 per 1000 sensitive viruses | not against HSV-2 | 141 | 131 | 109 | 81 | effective against HSV-1 | – | – | – | – | – | – |
| Nc1nc2c(ncn2COCCO)c(=O)[nH]1 [Acyclovir, 9-(2-hydroxyethoxymethyl) guanine] | – | ~3 per 1000 sensitive viruses | inhibits to an equal extent | – | – | – | – | inhibits to an equal extent | 28.6 /10^4 viruses | 111 | 99 | 52 | 8 | 0 |
